The test system of the data set is human PBMC. Put plainly: Induction of cytokines and chemokines from human PBMC, comparison with CpG polynucleotides (Milliplex MAP kit). The format is cell-based. To be noted: for Cytokine, IL-6 / Cytokine, IL-10 / Cytokine, MCP-1 / Cytokine, RANTES (CCL5): human PBMC culture supernatant, 48 h, final concentration 10 μg/mL; for Chemokine (MCP-1, RANTES) inducing activity towards human PBMC (in words) / Interleukin (cytokine) inducing activity towards human PBMC (in words): in comparison to LPS and MCC, Table 14. As to the method: LPS and MCC were included as positive controls as described in Example 7. PBMC were isolated from whole blood using standard Ficoll-Paque Plus (GE Healthcare Life Sciences, Baie d'Urfé, QC, Canada) gradient centrifugation, and placed in tissue culture plates at a concentration of 1×10^6 cells/mL (total volume: 1 mL in RPMI 1640 medium containing 10% heat-inactivated FBS (both from Wisent, St-Bruno, QC, Canada) and 50 μg/mL gentamycin sulfate (Sigma-Aldrich Canada, Oakville, ON, Canada). Non-DNA base-containing polynucleotide SEQ ID NOs: 1, 2, 3, 4, 5, 6, 7, 8 and 9 were added to separate wells to give a final concentration of 10 μg/mL, LPS was added to give a final concentration of 10 μg/mL, and the non-CpG 4010, CpG 2336, CpG 2429 and CpG 7909 polynucleotides, SEQ ID NOs: 31, 33, 35 and 34, respectively, were added to give a final concentration of 10 μg/mL.
The cells were then cultivated for 48 h. Cytokines (interleukins IL-6 and IL-10, chemokines MCP-1 and RANTES) in the culture supernatant were measured using a Milliplex™ MAP kit (Millipore Corporation, Billerica, Mass., USA) on a Bio-Plex 200 system (Bio-Rad Laboratories, Hercules, Calif., USA). MCP-1, also known as monocyte chemotactic protein, is an essential chemokine required for effective monocyte and myeloid dendritic cell activation and trafficking across endothelial and epithelial barriers (see for example Henkel et al, 2004 Ann. Neurol. 55:221-235), and RANTES (Regulated on Activation, Normal T cell Expressed and Secreted, now more commonly known as CCL5) is produced by memory phenotype T cells and is chemotactic for and activates T-cells (see for example Swanson et al, 2002 Immunity 17:605-615).

Strand notation (5' to 3'): a small letter for the sugar, then the base; units joined by * are phosphorothioate-linked, units joined directly phosphodiester-linked; [ ] holds rarer units or linkages, { } end groups; capitals alone tell only the bases. d = 2'-deoxy (DNA)

Regarding “GUG (DNA GNG; Central uracil in DNA, sugar and linkages not given here, further chemistry not given here) [SEQ ID NO: 8, 5′-OH, 3′-OH non-DNA base-containing polynucleotide]”, the “Cytokine, IL-6” value was found to be 0 pg/mL; the “Cytokine, IL-10” value turned out to be 0 pg/mL; the “Cytokine, MCP-1” value came out at 78 pg/mL; the “Cytokine, RANTES (CCL5)” value was 78 pg/mL. The “Chemokine (MCP-1, RANTES) inducing activity towards human PBMC (in words)” value (from here on “Chemokine”) is given as “marginal or no” and the “Interleukin (cytokine) inducing activity towards human PBMC (in words)” value (from here on “Interleukin”) was “marginal or no”.

In the case of “5′-TCGTCGTTTTCGGCGGCCGCCG-3′ (DNA dT*dC*dG*dT*dC*dG*dT*dT*dT*dT*dC*dG*dG*dC*dG*dG*dC*dC*dG*dC*dC*dG) [SEQ ID NO: 35, reference compound]”, the “Cytokine, IL-6” value is 42 pg/mL; the “Cytokine, IL-10” value worked out at 0 pg/mL; the “Cytokine, MCP-1” value is given as 906 pg/mL; the “Cytokine, RANTES (CCL5)” value worked out at 136 pg/mL. Besides, the “Chemokine” value was “strong MCP-1 inducing activity” and the “Interleukin” value was “did not induce cytokines”.

As to “5′-GGGGACGACGTCGTCGGGGGG-3′ (DNA dG*dG*dG*dG*dA*dC*dG*dA*dC*dG*dT*dC*dG*dT*dC*dG*dG*dG*dG*dG*dG) [SEQ ID NO: 33, reference compound]”, the “Cytokine, IL-6” value was 9 pg/mL; the “Cytokine, IL-10” value is 0 pg/mL; the “Cytokine, MCP-1” value was 573 pg/mL; the “Cytokine, RANTES (CCL5)” value worked out at 105 pg/mL. For the same substance, the “Chemokine” value is given as “strong MCP-1 inducing activity” and the “Interleukin” value was “did not induce cytokines”.

Consider “5′-TGCTGCTTTTTGCTGGCTTTTT-3′ (DNA dT*dG*dC*dT*dG*dC*dT*dT*dT*dT*dT*dG*dC*dT*dG*dG*dC*dT*dT*dT*dT*dT) [SEQ ID NO: 31, reference compound]”, for which the “Cytokine, IL-6” value is reported as 43 pg/mL; the “Cytokine, IL-10” value was 0 pg/mL; the “Cytokine, MCP-1” value was 343 pg/mL; the “Cytokine, RANTES (CCL5)” value turned out to be 275 pg/mL. The “Chemokine” value is “had chemokine-inducing activity”.

“GGGTGGIII (DNA GGGTGGNNN; Three 3' inosines, sugar and linkages not given here, further chemistry not given here) [SEQ ID NO: 7, 5′-OH, 3′-OH non-DNA base-containing polynucleotide]”: the “Cytokine, IL-6” value is recorded as 1 pg/mL; the “Cytokine, IL-10” value is recorded as 0 pg/mL; the “Cytokine, MCP-1” value stood at 79 pg/mL; the “Cytokine, RANTES (CCL5)” value came to 71 pg/mL. The “Chemokine” value is reported as “marginal or no” and the “Interleukin” value is given as “marginal or no”.

Take “5′-TCGTCGTTTTGTCGTTTTGTCGTT-3′ [SEQ ID NO: 34, reference compound]”: the “Cytokine, IL-6” value was 41 pg/mL; the “Cytokine, IL-10” value was found to be 2 pg/mL; the “Cytokine, MCP-1” value is 1270 pg/mL; the “Cytokine, RANTES (CCL5)” value came to 187 pg/mL. Also, the “Chemokine” value is “strong MCP-1 inducing activity” and the “Interleukin” value is on record as “did not induce cytokines”.

On to “GGGTGGNebNebNeb (DNA GGGTGGNNN; Three 3' nebularines, sugar and linkages not given here, further chemistry not given here) [SEQ ID NO: 5, 5′-OH, 3′-OH non-DNA base-containing polynucleotide]”, for which the “Cytokine, IL-6” value amounted to 845 pg/mL; the “Cytokine, IL-10” value was 13 pg/mL; the “Cytokine, MCP-1” value was 3600 pg/mL; the “Cytokine, RANTES (CCL5)” value is 202 pg/mL. Also, the “Chemokine” value is given as “strong” and the “Interleukin” value is “strong”.

Source of the values: patent publication US20110111016A1, “NON-DNA BASE-CONTAINING POLYNUCLEOTIDE COMPOSITIONS AND THEIR USE FOR THE MODULATION OF IMMUNE RESPONSES” (priority 2009, published 2011).
